System: CHOK1 cells engineered to overexpress CXCR3
Test: Antibody dependent cellular cytotoxicity (ADCC) reporter assay
Type: cell-based
Settings: with anti-cotinine antibody (human IgG1 Fc, S239D/I332E), Jurkat FcγRIIIa NFAT-luciferase reporter cells, incubated about 12-18 hours, average of two experimental runs, EC50 in molar (M)
Experimental: An antibody dependent cellular cytotoxicity (ADCC) reporter assay was conducted using the following four assay components: (i) ARM compound of Formula (I) targeting CXCR3 (concentrations ranging from 1 pM to 10 μM); (ii) anti-cotinine antibody having a heavy chain sequence of SEQ ID NO: 11 and a light chain sequence of SEQ ID NO: 12 (rabbit variable region with human IgG1 Fc domain containing DE mutation (S239D/I332E)) (concentrations ranging from 0.01 μg/mL-200 μg/mL); (iii) Target cells: CHOK1 cells engineered to overexpress CXCR3 (typically 1000-20,000 cells per well); and (iv) Reporter cells—Jurkat cells engineered to express FcγRIIIa with a reporter gene luciferase under the control of the NFAT promoter (typically 3000-75,000 cells per well). Reagents were combined in final volume of 20 μL in 384-well tissue culture treated plate. […]
Luminescence signal was measured on a microplate reader capable of measuring luminescence and signal:background was calculated by dividing the signal of a test well by the signal obtained when no compound of formula (I) was included in the assay. […]
ARMs compounds of Formula (I) were tested for ADCC activity in the above assay in two experimental runs and the results are shown in Table 3 below. […] The pEC50 value is the negative log of the EC50 value, wherein the EC50 value is half maximal effective concentration measured in molar (M). […]

Structure (SMILES)	ADCC Reporter Assay pEC50	EC50 (Cricetulus griseus, read-out: ADCC Reporter Assay pEC50 (converted)) [M]
CCOc1ccc(-n2c([C@@H](C)N(CC3CCN(C(=O)C4CCC(NC(=O)CCCOC5CCC(OCCNC(=O)[C@H]6CC(=O)N(C)[C@@H]6c6cccnc6)CC5)CC4)CC3)C(=O)Cc3ccc(F)c(C(F)(F)F)c3)nc3ncccc3c2=O)cc1 (stereo partly drawn) [Example 1, (2S,3S)—N-(2-(((1R,4S)-4-(4-(((1R,4R)-4-(4-((N-((R)-1-(3-(4-ethoxyphenyl)-4-oxo-3,4-dihydropyrido[2,3-d]pyrimidin-2-yl)ethyl)-2-(4-fluoro-3-(trifluoromethyl)phenyl)acetamido)methyl)piperidine-1-carbonyl)cyclohexyl)amino)-4-oxobutoxy)cyclohexyl)oxy)ethyl)-1-methyl-5-oxo-2-(pyridin-3-yl)pyrrolidine-3-carboxamide]	7.7	
CCOc1ccc(-n2c([C@@H](C)N(CC3CCN(C(=O)[C@H]4CC[C@H](NC(=O)CCCO[C@H]5CC[C@H](OCCNC(=O)[C@H]6CC(=O)N(C)[C@@H]6c6cccnc6)CC5)CC4)CC3)C(=O)Cc3ccc(F)c(C(F)(F)F)c3)nc3ncccc3c2=O)cc1 (racemic) [Example 2, (2S,3S)-N-(2-(((1R,4S)-4-(4-(((1S,4S)-4-(4-((N-((R)-1-(3-(4-ethoxyphenyl)-4-oxo-3,4-dihydropyrido[2,3-d]pyrimidin-2-yl)ethyl)-2-(4-fluoro-3-(trifluoromethyl)phenyl)acetamido)methyl)piperidine-1-carbonyl)cyclohexyl)amino)-4-oxobutoxy)cyclohexyl)oxy)ethyl)-1-methyl-5-oxo-2-(pyridin-3-yl)pyrrolidine-3-carboxamide]		3.98e-09
